Assay [1] has as its system Differentiate human neutrophils (HL-60 cells). The experiment in a line: PMA-stimulated O2.- production by differentiated human neutrophils, lucigenin-chemiluminescence. The following applies: HL-60 neutrophils, PMA 100 ng/ml for 5 min. The class given is cell-based. The method, then:
(§1) A) Differentiate human neutrophils (HL-60 cells, 5×10^4 cells/well) were stimulated with PMA (100 ng/ml) for 5 min in the presence or absence of LMH036 at the dose indicated. O2.^− production was measured by lucigenin-chemiluminescence. B) HPMEC were stimulated with TNFα (100 U/ml) for 45 min. Cells were immediately frozen in liquid nitrogen and homogenised. Cell homogenates (0.1 mg/well) were pre-incubated with LMH036 at the indicated dose for 5 min and measured for the O2.^− production in the presence of NADPH (100 μM) by lucigenin-chemiluminescence.
HL-60 is a human promyelocytic leukaemia cell line. […]
(§2) O2^− production by different cell types was measured using lucigenin (5 μM)-chemiluminescence. A microplate luminometer (LumiStar, BMG) was used, which allows the examination of 96 samples at the same time with kinetic reading facilities. […] Dark-adapted lucigenin (5 μM) was added into the well through an auto-dispenser located in the dark chamber just before reading. The light emission was recorded over a 60 minute period and expressed as arbitrary MLU measured by the illuminometer. Each experiment was performed in triplicate and the mean of 3 blank readings was subtracted from each corrected value for each reading. […]

In assay [2] the test system is HPMEC. Nature of the assay: NADPH-dependent O2.- production by homogenates of TNFα-stimulated HPMEC, lucigenin-chemiluminescence. To be noted: HPMEC stimulated with TNFα 100 U/ml 45 min, homogenates 0.1 mg/well, NADPH 100 μM. The class given is cell-based, human. The method, then:
as §1, §2
O2^− production was also studied using total cell homogenate (for the endothelial cells and the fibroblasts). […] Soluble protein concentration was determined using a kit from Bio-Rad Laboratories Ltd. (Hertfordshire, U.K.). […]

In the case of `OCc1cc(-c2ncc(-c3cccc(O)c3O)o2)ccc1O` [LMH036, 3-(2-(4-hydroxy-3-(hydroxymethyl)phenyl)oxazol-5-yl)benzene-1,2-diol], the “O2.- production by human cells” value in assay [1] and in assay [2] was “inhibitory effect” in each case.
